The assay addresses T1, PDE1A (Homo sapiens, UniProt P54750).
T1 construct: purchased SignalChem
Kind of assay: In vitro detection of phosphodiesterase (PDE): PDE1A enzyme activity by fluorescence polarization immunoassay. The note with it: human-derived enzyme, cAMP or cGMP substrate; read-out: IC50s for PDE1. The assay is classed as biochemical. The protocol:
Test 1: In Vitro Detection of Phosphodiesterase (PDE)
the enzyme activity of PDE1A was determined by detecting the production of AMP/GMP by fluorescence polarization immunoassay, wherein AlexaFluor 633 labeled AMP/GMP was used to replace AMP/GMP to bind with the antibody.
Reaction buffer: 10 mM Tris-HCl, pH 7.5, 5 mM magnesium chloride, 0.01% Brij 35, 1 mM DTT and 1% DMSO;
Enzyme substrate: […] cAMP or cGMP (Ca^2+-calmodulin acts as a cofactor of PDE1A)
Detection reagent: Transcreener® AMP2/GMP2 antibody; AMP2/GMP2 AlexaFluor 633 tracer.
Experimental Procedure and Method:
1. Human-derived enzyme (commercially available from SignalChem) to be tested and substrate were diluted with freshly prepared reaction buffer;
2. The enzyme solution (with a concentration of 3 pM) was added to the holes of the microplates;
3. A series of solutions of the compounds in 100% DMSO (with the desired concentrations) were added to the holes containing the enzyme solution by Echo550, and then the microplates were incubated for 10 minutes at room temperature;
4. The substrate solution was added to the holes containing the enzyme and compounds to start the reaction;
5. The microplates were incubated for 1 hour under room temperature and vibration;
6. The detection mixture (tracer and antibody in stop buffer) was added to stop the enzyme reaction, and the microplates were incubated for 90 minutes under vibration;
7. The equipment EnVision (PerkinElmer), Cy5 FP Ex FP 620, Em S-pol 688/P-pol 688, FP mirror D658fp/D688 was used to detect the reaction mixture, and Ex/Em 620/688 was used to detect the fluorescence polarization.
In the Excel table, the enzyme activity corresponding to the FP signal was found on the AMP/GMP standard curve by reference to the DMSO negative control, and then was converted to product concentration (nM). GraphPad Prism was used to analyze and calculate the IC50 values.
On the technique in general: In fluorescence polarisation assays a small probe gives low polarisation when free and higher when bound to something large.

Bounds are passed on as bounds.

On to `CC[C@@]12C=C(c3nc(C)c(CO)o3)n3c4c(c5ccccc53)CCN(CCC1)[C@H]42` [Example 61, (2-((4^1S,13aS)-13a-ethyl-2,3,4^1,5,6,13a-hexahydro-1H-indolo[3,2,1-de]pyrido[3,2,1-ij][1,5]naphthyridin-12-yl)-4-methyloxazol-5-yl)methanol], for which the IC50 was ≤ 1 µM.
With `CC[C@@]12C=C(c3nc(-c4ccncc4)no3)n3c4c(c5ccccc53)CCN(CCC1)[C@H]42` [Example 31, 5-((4^1S,13aS)-13a-ethyl-2,3,4^1,5,6,13a-hexahydro-1H-indolo[3,2,1-de]pyrido[3,2,1-ij][1,5]naphthyridin-12-yl)-3-(pyridin-4-yl)-1,2,4-oxadiazole], the IC50 is 1 to 20 µM.
Take “(4^1S,13aS)-13a-ethyl-12-(1-methyl-1H-pyrazol-3-yl)-2,3,4^1,5,6,13a-hexahydro-1H-indolo[3,2,1-de]pyrido[3,2,1-ij][1,5]naphthyridine, and (4^1S,13aS)-13a-ethyl-12-(1-methyl-1H-pyrazol-5-yl)-2,3,4^1,5,6,13a-hexahydro-1H-indolo[3,2,1-de]pyrido[3,2,1-ij][1,5]naphthyridine [Example 46]”: the IC50 was in the range of 20 to 100 µM.
`CC[C@@]12C=C(c3nnc(C)o3)n3c4c(c5ccccc53)CCN(CCC1)[C@H]42` [Example 17, 2-((4^1S,13aS)-13a-ethyl-2,3,4^1,5,6,13a-hexahydro-1H-indolo[3,2,1-de]pyrido[3,2,1-ij][1,5]naphthyridin-12-yl)-5-methyl-1,3,4-oxadiazole]: the IC50 was in the range of 1 to 20 µM.
As for `CC[C@@]12C=C(c3nc4c(o3)CCOC4)n3c4c(c5ccccc53)CCN(CCC1)[C@H]42` [Example 66, 2-((4^1S,13aS)-13a-ethyl-2,3,4^1,5,6,13a-hexahydro-1H-indolo[3,2,1-de]pyrido[3,2,1-ij][1,5]naphthyridin-12-yl)-6,7-dihydro-4H-pyrano[3,4-d]oxazole], the IC50 is ≤ 1 µM.
As for `CC[C@@]12C=C(c3noc(C(C)(C)O)n3)n3c4c(c5ccccc53)CCN(CCC1)[C@H]42` [Example 25, 2-(3-((4^1S,13aS)-13a-ethyl-2,3,4^1,5,6,13a-hexahydro-1H-indolo[3,2,1-de]pyrido[3,2,1-ij][1,5]naphthyridin-12-yl)-1,2,4-oxadiazol-5-yl)propan-2-ol], the IC50 lay within 1 to 20 µM.
In the case of `CC[C@@]12C=C(c3nc(C)c(OC)o3)n3c4c(c5ccccc53)CCN(CCC1)[C@H]42` [Example 41, 2-((4^1S,13aS)-13a-ethyl-2,3,4^1,5,6,13a-hexahydro-1H-indolo[3,2,1-de]pyrido[3,2,1-ij][1,5]naphthyridin-12-yl)-5-methoxy-4-methyloxazole], the IC50 is ≤ 1 µM.
As for `CC[C@@]12C=C(c3nc(C(F)(F)F)no3)n3c4c(c5ccccc53)CCN(CCC1)[C@H]42` [Example 22, 5-((4^1S,13aS)-13a-ethyl-2,3,4^1,5,6,13a-hexahydro-1H-indolo[3,2,1-de]pyrido[3,2,1-ij][1,5]naphthyridin-12-yl)-3-trifluoromethyl-1,2,4-oxadiazole], the IC50 was in the range of 20 to 100 µM.
Take `CC[C@@]12C=C(c3noc(C)n3)n3c4c(c5ccccc53)CCN(CCC1)[C@H]42` [Example 20, 3-((4^1S,13aS)-13a-ethyl-2,3,4^1,5,6,13a-hexahydro-1H-indolo[3,2,1-de]pyrido[3,2,1-ij][1,5]naphthyridin-12-yl)-5-methyl-1,2,4-oxadiazole]: the IC50 was 1 to 20 µM.
Consider “(4^1S,13aS)-13a-ethyl-N-(3-methoxylpropyl)-12-(3-methyl-1,2,4-oxadiazol-5-yl)-2,3,4^1,5,6,13a-hexahydro-1H-indolo[3,2,1-de]pyrido[3,2,1-ij][1,5]naphthyridin-8-sulfonamide [Example 81]”, for which the IC50 lay within 20 to 100 µM.
As for `CC[C@@]12C=C(/C=C/C(N)=O)n3c4c(c5ccccc53)CCN(CCC1)[C@H]42` [Example 7, (E)-3-((4^1S,13aS)-13a-ethyl-2,3,4^1,5,6,13a-hexahydro-1H-indolo[3,2,1-de]pyrido[3,2,1-ij][1,5]naphthyridin-12-yl)acrylamide], the IC50 lay in the range of 20 to 100 µM.
With `CC[C@@]12C=C(/C=C/C(=O)O)n3c4c(c5ccccc53)CCN(CCC1)[C@H]42` [Example 5, (E)-3-((4^1S,13aS)-13a-ethyl-2,3,4^1,5,6,13a-hexahydro-1H-indolo[3,2,1-de]pyrido[3,2,1-ij][1,5]naphthyridin-12-yl)acrylic acid], the IC50 was > 100 µM.
With `CC[C@@]12C=C(c3nc(C)no3)n3c4c(c5ccc(S(=O)(=O)N(C)C)cc53)CCN(CCC1)[C@H]42` [Example 77, (4^1S,13aS)-13a-ethyl-N,N-dimethyl-12-(3-methyl-1,2,4-oxadiazol-5-yl)-2,3,4^1,5,6,13a-hexahydro-1H-indolo[3,2,1-de]pyrido[3,2,1-ij][1,5]naphthyridin-9-sulfonamide], the IC50 lay within 20 to 100 µM.
As to `CC[C@@]12C=C(c3n[nH]c(=O)o3)n3c4c(c5ccccc53)CCN(CCC1)[C@H]42` [Example 16, 5-((4^1S,13aS)-13a-ethyl-2,3,4^1,5,6,13a-hexahydro-1H-indolo[3,2,1-de]pyrido[3,2,1-ij][1,5]naphthyridin-12-yl)-1,3,4-oxadiazol-2(3H)-one], the IC50 was in the range of 1 to 20 µM.
Consider `CC[C@@]12C=C(c3nc(C)no3)n3c4c(c5c(S(=O)(=O)NC)cccc53)CCN(CCC1)[C@H]42` [Example 82, (4^1S,13aS)-13a-ethyl-N-methyl-12-(3-methyl-1,2,4-oxadiazol-5-yl)-2,3,4^1,5,6,13a-hexahydro-1H-indolo[3,2,1-de]pyrido[3,2,1-ij][1,5]naphthyridin-7-sulfonamide], for which the IC50 was in the range of 20 to 100 µM.
Consider `CC[C@@]12C=C(c3nc(C)co3)n3c4c(c5ccccc53)CCN(CCC1)[C@H]42` [Example 50, 2-((4^1S,13aS)-13a-ethyl-2,3,4^1,5,6,13a-hexahydro-1H-indolo[3,2,1-de]pyrido[3,2,1-ij][1,5]naphthyridin-12-yl)-4-methyloxazole], for which the IC50 lay in the range of 1 to 20 µM.
On to `CC[C@@]12C=C(c3nc(C)c(C(C)(C)O)o3)n3c4c(c5ccccc53)CCN(CCC1)[C@H]42` [Example 60, 2-(2-((4^1S,13aS)-13a-ethyl-2,3,4^1,5,6,13a-hexahydro-1H-indolo[3,2,1-de]pyrido[3,2,1-ij][1,5]naphthyridin-12-yl)-4-methyloxazol-5-yl)propan-2-ol], for which the IC50 was 1 to 20 µM.
Then `CC[C@@]12C=C(c3ccccn3)n3c4c(c5ccccc53)CCN(CCC1)[C@H]42` [Example 11, (4^1S,13aS)-13a-ethyl-12-(pyridin-2-yl)-2,3,4^1,5,6,13a-hexahydro-1H-indolo[3,2,1-de]pyrid o[3,2,1-ij][1,5]naphthyridine], with 20 to 100 µM; and `CC[C@@]12C=C(c3nsc(=O)[nH]3)n3c4c(c5ccccc53)CCN(CCC1)[C@H]42` [Example 19, 3-((4^1S,13aS)-13a-ethyl-2,3,4^1,5,6,13a-hexahydro-1H-indolo[3,2,1-de]pyrido[3,2,1-ij][1,5]naphthyridin-12-yl)-1,2,4-thiadiazol-5(4H)-one], with > 100 µM; and “(4^1S,13aS)-13a-ethyl-N-(3-methoxylpropyl)-12-(3-methyl-1,2,4-oxadiazol-5-yl)-2,3,4,5,6,13a-hexahydro-1H-indolo[3,2,1-de]pyrido[3,2,1-ij][1,5]naphthyridin-7-sulfonamide [Example 84]”, with > 100 µM.
The value for `CC[C@@]12C=C(c3nc(C)c(C)o3)n3c4c(c5c(S(=O)(=O)NCCCOC)cccc53)CCN(CCC1)[C@H]42` [Example 75, (4^1S,13aS)-12-(4,5-dimethyloxazol-2-yl)-13a-ethyl-N-(3-methoxylpropyl)-2,3,4^1,5,6,13a-hexahydro-1H-indolo[3,2,1-de]pyrido[3,2,1-ij][1,5]naphthyridin-7-sulfonamide] was 20 to 100 µM.
Consider `CC[C@@]12C=C(c3nc(C(C)C)c(C)o3)n3c4c(c5ccccc53)CCN(CCC1)[C@H]42` [Example 57, 2-((4^1S,13aS)-13a-ethyl-2,3,4^1,5,6,13a-hexahydro-1H-indolo[3,2,1-de]pyrido[3,2,1-ij][1,5]naphthyridin-12-yl)-4-isopropyl-5-methyloxazole], for which the IC50 was ≤ 1 µM.
Turning to `CCc1oc(C2=C[C@]3(CC)CCCN4CCc5c(n2c2ccccc52)[C@@H]43)nc1C` [Example 53, 5-ethyl-2-((4^1S,13aS)-13a-ethyl-2,3,4^1,5,6,13a-hexahydro-1H-indolo[3,2,1-de]pyrido[3,2,1-ij][1,5]naphthyridin-12-yl)-4-methyloxazole], the IC50 is ≤ 1 µM.
Turning to `CC[C@@]12C=C(c3nc(C)no3)n3c4c(c5ccc(S(=O)(=O)NC)cc53)CCN(CCC1)[C@H]42` [Example 76, (4^1S,13aS)-13a-ethyl-N-methyl-12-(3-methyl-1,2,4-oxadiazol-5-yl)-2,3,4^1,5,6,13a-hexahydro-1H-indolo[3,2,1-de]pyrido[3,2,1-ij][1,5]naphthyridin-9-sulfonamide], the IC50 was in the range of 1 to 20 µM.
